The results in this text go back to patent US7049312B1, “Benzothiazinone and benzoxazinone compounds” (Abbott GmbH & Co. KG, priority 1999, dated 2006).

For the compound `CC(=O)OCCCCn1cc(C=C2Sc3ccccc3NC2=O)c2cccnc21` [Example 131, 2-{[1-(4-Acetoxybutyl)-7-azaindol-3-yl]methylene}-2H-1,4-benzothiazine-3(4H)-one], the melting point fell in the range of 158 to 160 °C. In the case of `S=C1Nc2ccccc2SC1=Cc1c[nH]c2ccccc12` [Example 268, 2-[(Indol-3-yl)methylene]-2H-1,4-benzothiazine-3(4H)-thione], the melting point was 253 to 256 °C. `S=C1Nc2ccccc2SC1=Cc1c[nH]c2ncccc12` [Example 269, 2-[(7-azaindol-3-yl)methylene]-2H-1,4-benzothiazine-3(4H)-thione]: the melting point was 287 to 290 °C. The same measure for `S=C1Nc2ccccc2SC1=Cc1ccc[nH]1` [Example 270, 2-[(pyrrol-2-yl)methylene]-2H-1,4-benzothiazine-3(4H)-thione]: 205 to 206 °C; for `S=C1Nc2ccccc2OC1=Cc1ccc[nH]1` [Example 271, 2-[(Pyrrol-2-yl)methylene]-2H-1,4-benzoxazin-3 (4H)-thione]: 241 to 243 °C. Turning to `S=C1Nc2ccccc2OC1=Cc1c[nH]c2ccccc12` [Example 272, 2-[(indol-3-yl)methylene]-2H-1,4-benzoxazin-3(4H)-thione], the melting point lay in the range of 275 to 277 °C.

Compound `ON=C1Nc2ccccc2SC1=Cc1ccc[nH]1` [Example 273, 3-Hydroxyimino-2-[(pyrrol-2-yl)methylene]-2H-1,4-benzothiazine] returned a melting point of 204 to 205 °C. The same measure for `CC(=O)ON=C1Nc2ccccc2SC1=Cc1ccc[nH]1` [Example 276, 3-Acetyloxyimino-2-[(pyrrol-2-yl)methylene]-2H-1,4-benzothiazine]: 182 to 185 °C; for `O=C(ON=C1Nc2ccccc2SC1=Cc1ccc[nH]1)c1ccccc1` [Example 277, 3-Benzoyloxyimino-2-[(pyrrol-2-yl)methylene]-2H-1,4-benzothiazine]: 188 to 189 °C; for `ON=C1Nc2ccccc2OC1=Cc1ccc[nH]1` [Example 278, 3-Hydroxyimino-2-[(pyrrol-2-yl)methylene]-2H-1,4-benzoxazine]: 192 to 194 °C.

The compound `O=C1Nc2ccccc2S(=O)(=O)C1=Cc1c[nH]c2ccccc12` [Example 280, 1,1-Dioxo-2-[(indol-3-yl)methylene]-2H-1,4-benzothiazin-3(4H)-one] returned a melting point of 318 to 320 °C.

In the case of `COc1ccc(NC=C2C(=O)Nc3ccccc3S2(=O)=O)cc1` [Example 285, 1,1 Dioxo-2-[(4-methoxyphenylamino)methylene]-2H-1,4-benzothiazin-3(4H)-one], the melting point lay in the range of 250 to 251 °C. On to `O=C1Nc2ncccc2OC1=Cc1ccccc1` [Example 297, 2-(Phenylmethylene)-2H-pyrido[3,2-b][1,4]oxazin-3(4H)-one], for which the melting point was 223 to 225 °C.

For orientation: melting point means the temperature, or range, at which the solid turns liquid.
